17 molecules from US20040082664A1, “Derivatives of hydroxyphenyl, a method for preparing thereof and their pharmaceutical composition” (priority 2002, published 2004) can be followed below.

The subject of one assay is IL-2 promoter. As to the kind of experiment: IL-2 promoter luciferase reporter assay in anti-CD3 activated Jurkat cells. It is filed as cell-based. The conditions noted are these: Homo sapiens, TCR-induced (anti-CD3) IL-2 promoter luciferase, 2 h pre-incubation. On the procedure:
In order to confirm whether the compounds of the invention can pass through a cell membrane and inhibit the expression of IL-2 gene leading to T-cell proliferation, the present inventors firstly confirmed T-cell activity by detecting the activity of the luciferase fused on the downstream of IL-2 promoter.
To investigate the activity of IL-2 promoter, Jurkat cells (1×10^6) were transfected with a IL-2 reporter plasmids using Superfect™ (Qiagen Inc.). After 24 hours of transfection, Jurkat cells were pre-incubated with compounds of various concentrations (1 uM-50 uM) for 2 hours and further cultured on 35mm plate pre-coated with 5 ug/ml of anti-CD3 antibody, resulting in T cell activation. The luciferase activity was measured using Berthold luminometer LB953. The IC50 (50% inhibition concentration) of the compounds of the invention on TCR-induced IL-2 promoter activation are shown in Table 2.

The subject of another assay is skin allograft rejection. As to the kind of experiment: Inhibition of skin allograft rejection (Balb/c tail skin grafted onto C57BL/6 mouse). It is filed as in vivo. On the procedure:
For the experiment, allogeneic Balb/c(H-2d) mouse-tail skin was grafted onto C57BL/6(H-2b) mouse. Generally 7-8 mice were assigned to each group. All the phenyl derivatives were dissolved in 100% ethanol, mixed with olive oil, and adjusted to the final concentration of ethanol therein less than 5%. […] Meanwhile, for the group of untreated mice, an olive oil-ethanol mixture was administered as a control. The grafted skin was monitored daily after the removal of the bandage on days 7-9. Rejection was defined as more than 80% necrosis of the graft epithelium.

The next assay has as its target T1, GST-fused lck SH2 domain (Homo sapiens, UniProt P06239).
T1 construct: GST (Glutathione transferase)-fused lck SH2 domain
The assay is described as follows: Inhibition of in vitro binding of lck SH2 domain to its cognate pYEEI peptide (BIAcore 2000). The conditions noted are these: IC50 class for inhibition of GST-lckSH2 binding to immobilized biotinylated […]pYEEIPI peptide; read-out: BOND DEGREE WITH SH2 OF 1ck. On the procedure:
The present inventors investigated the inhibition activity of phenyl derivatives on the interaction of GST (Glutathione transferase)-fused lck SH2 domain and a peptide […]pYEEIPI (comprising the sequence PYEEI, a cognate peptide of Lck SH2) by using a real time sensorgram (BIAcore 2000).
At first, the biotinylated peptide was fixed on the surface of BIAcore analysis apparatus and then GST-lckSH2 protein was injected over the surface of the immobilized peptides. The binding of GST-lck SH2 with the peptide is represented as the resonance units (referred as “RU” hereinafter) and 1,000 RU corresponds to a change in surface concentration of 1 ng/mm^2. The binding of GST-lck with the fixed peptide causes the change of refractory index, leading to the increase of RU. In the mean time, when the binding of GST-lck with the fixed peptide is inhibited, RU decreases. Those results are represented in Table 1.
On the technique in general: SPR reads the build-up and loss of mass on a sensor chip optically.

In assay [1] the test system is collagen-induced rheumatoid arthritis. As to the kind of experiment: Inhibition of collagen-induced rheumatoid arthritis in DBA1/LacJ mice. Also on record: key: sum of 4 leg scores (0-4 each), max 16. It is filed as in vivo, mouse. To be noted: 50 mg/kg/day i.p. daily; day 15 after treatment (day 36 after primary immunization); sum of scores of four legs, maximum 16; mean ± standard deviation. On the procedure: After 2 weeks, booster immunization was carried out with 50 μg C II/IFA. From the 3rd week after primary immunization, compounds of the present invention were injected daily into peritoneal cavities of 6-8 mice per group for 15-20 days.
The vehicle control groups were injected daily with 100 μl of 5% ethanol-olive oil mixture in total 15-20 times. Widely used anti-rheumatic drug, Methotrexate, was dissolved in PBS and then injected to mice at 1 mg/kg/day every other day in total 8-10 times. Meanwhile, the compounds of the invention were dissolved in ethanol and then mulsified in olive oil, in which the final ethanol concentration was adjusted to 5% and the compounds of this invention was 50 mg/kg/day.
From the 3rd week after primary immunization, the extent of edema and the joint swelling was monitored everyday to determine arthritic index. Arthitic index is the sum of the arthritic scores of all 4 legs and, therefore, maximum arthritis index of 16 can be achieved (e.g., [4 (maximum arthritic score)/leg]×[4 legs/mouse]=16 (maximum arthritis index/mouse)). […] was presented by the mean arthritis index±standard deviation of each mouse group.

[2] abbreviates: 100 mg/kg/day into abdominal cavity from day of transplantation until complete rejection.

A value given as a limit tells only on which side of the number the result lay.

T1 sequence (P06239 127-224 limits assumed): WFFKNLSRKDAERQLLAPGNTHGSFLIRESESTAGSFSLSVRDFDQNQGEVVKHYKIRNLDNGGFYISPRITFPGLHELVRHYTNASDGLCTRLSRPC

As to `COC(=O)[C@@H](Cc1ccc(O)c(O)c1)NC(=O)/C=C/c1ccc(O)c(O)c1` [Example 1, 3-(3,4-dihydroxy-phenyl)-(R)-2-[3-trans-(3,4-dihydroxy-phenyl)-acryloylamino]-propionic acid methyl ester], the IC50 in the assay with IL-2 promoter is 1.2 µM; at GST-fused lck SH2 domain, under 10 µM. The “Survival time of skin graft tissue (days ± variance)” value (from here on “Survival time of skin graft tissue”) with skin allograft rejection (setting [2]) was found to be 15.1 ± 1.5 days; with skin allograft rejection (Example (1) 50 mg/kg/day), 11.2 ± 0.5 days. The molecule further gave an Arthritis index in assay [1] of 4.3 ± 1.5.

As to `O=C(/C=C/c1ccc(O)c(O)c1)N[C@H](Cc1ccc(O)c(O)c1)C(=O)O` [Example 2, 3-(3,4-dihydroxy-phenyl)-(R)-2-[3-trans-(3,4-dihydroxy-phenyl)-acryloylamino]-propionic acid], the IC50 with IL-2 promoter is 15 µM; at GST-fused lck SH2 domain, under 10 µM. Besides, the “Survival time of skin graft tissue” value in the assay on skin allograft rejection (setting [2]) was found to be 14.8 ± 0.5 days. Also, the Arthritis index in assay [1] worked out at 7.2 ± 1.5.

For the molecule `COC(=O)[C@H](Cc1ccc(O)c(O)c1)NC(=O)/C=C/c1ccc(O)c(O)c1` [Example 8, 3-(3,4-dihydroxy-phenyl)-(S)-2-[3-trans-(3,4-dihydroxy-phenyl)-acryloylamino]-propionic acid methyl ester], the IC50 in the assay with IL-2 promoter is 10.9 µM; on GST-fused lck SH2 domain it was 10 to 25 µM. In the assay with skin allograft rejection (setting [2]), the “Survival time of skin graft tissue” value is on record as 15.2 ± 1.1 days. This molecule yielded an Arthritis index in assay [1] of 6.0 ± 1.1.

Regarding `O=C(/C=C/c1ccc(O)c(O)c1)N[C@@H](Cc1ccc(O)c(O)c1)C(=O)O` [Example 9, 3-(3,4-dihydroxy-phenyl)-(S)-2-[3-trans-(3,4-dihydroxy-phenyl)-acryloylamino]-propionic acid], the figures for the IC50 in the assay on IL-2 promoter and at GST-fused lck SH2 domain were 18.2 µM and 25 to 50 µM, respectively. Also, the “Survival time of skin graft tissue” value in the assay on skin allograft rejection (setting [2]) came out at 14.8 ± 0.9 days. Further, in assay [1], the Arthritis index worked out at 7.2 ± 1.2.

On to `CCOC(=O)[C@H](Cc1ccc(O)c(O)c1)NC(=O)/C=C/c1ccc(O)c(O)c1` [Example 10, 3-(3,4-dihydroxy-phenyl)-(S)-2-[3-trans-(3,4-dihydroxy-phenyl)-acryloylamino]-propionic acid ethyl ester], for which the IC50 is 4.4 µM with IL-2 promoter and 10 to 25 µM at GST-fused lck SH2 domain. Besides, the “Survival time of skin graft tissue” value with skin allograft rejection (setting [2]) stood at 15.3 ± 0.8 days. In assay [1], this molecule came in with an Arthritis index of 5.8 ± 0.8.

On to `CCCOC(=O)[C@H](Cc1ccc(O)c(O)c1)NC(=O)/C=C/c1ccc(O)c(O)c1` [Example 11, 3-(3,4-dihydroxy-phenyl)-(S)-2-[3-trans-(3,4-dihydroxy-phenyl)-acryloylamino]-propionic acid propyl ester], for which the IC50 was 4.9 µM in the assay on IL-2 promoter and 10 to 25 µM at GST-fused lck SH2 domain. For the same molecule, the “Survival time of skin graft tissue” value in the assay on skin allograft rejection (setting [2]) was 14.4 ± 0.9 days. Also, the Arthritis index in assay [1] is on record as 6.1 ± 1.3.

Take `CC(C)OC(=O)[C@H](Cc1ccc(O)c(O)c1)NC(=O)/C=C/c1ccc(O)c(O)c1` [Example 12, 3-(3,4-dihydroxy-phenyl)-(S)-2-[3-trans-(3,4-dihydroxy-phenyl)-acryloylamino]-propionic acid isopropyl ester]: the IC50 is 9.5 µM with IL-2 promoter and 10 to 25 µM on GST-fused lck SH2 domain. For the same molecule, the “Survival time of skin graft tissue” value with skin allograft rejection (setting [2]) worked out at 15.7 ± 0.8 days. The molecule further gave an Arthritis index in assay [1] of 5.1 ± 0.7.

In the case of `CC(C)(C)OC(=O)[C@H](Cc1ccc(O)c(O)c1)NC(=O)/C=C/c1ccc(O)c(O)c1` [Example 13, 3-(3,4-dihydroxy-phenyl)-(S)-2-[3-trans-(3,4-dihydroxy-phenyl)-acryloylamino]-propionic acid tert-butyl ester], the figures for the IC50 with IL-2 promoter and at GST-fused lck SH2 domain were 7.2 µM and 25 to 50 µM, respectively. In the assay on skin allograft rejection (setting [2]), the “Survival time of skin graft tissue” value was determined as 14.5 ± 0.6 days. Also, the Arthritis index in assay [1] is 6.9 ± 1.1.

Take `CC(C)OC(=O)[C@@H](Cc1ccc(O)c(O)c1)N(C)C(=O)/C=C/c1ccc(O)c(O)c1` [Example 33, 3-(3,4-dihydroxy-phenyl)-(R)-2-{[3-trans-(3,4-dihydroxy-phenyl)-acryloyl]-methyl-amino}-propionic acid isopropyl ester]: the IC50 was 7.8 µM in the assay with IL-2 promoter and 10 to 25 µM on GST-fused lck SH2 domain. The molecule also registered an Arthritis index in assay [1] of 5.7 ± 0.9.

Turning to `CN(C(=O)/C=C/c1ccc(O)c(O)c1)[C@H](Cc1ccc(O)c(O)c1)C(=O)OC(C)(C)C` [Example 34, 3-(3,4-dihydroxy-phenyl)-(R)-2-{[3-trans-(3,4-dihydroxy-phenyl)-acryloyl]-methyl-amino}-propionic acid tert-butyl ester], the IC50 with IL-2 promoter was 14.9 µM; on GST-fused lck SH2 domain, 25 to 50 µM. For the same molecule, the Arthritis index in assay [1] came to 6.3 ± 0.8.

With `CN(C(=O)/C=C/c1ccc(O)c(O)c1)[C@H](Cc1ccc(O)c(O)c1)C(N)=O` [Example 35, N-[l-carbamoyl-2-(3,4-dihydroxy-phenyl)-ethyl]-(R)-3-trans-(3,4-dihydroxy-phenyl)-N-methyl-acrylamide], the IC50 in the assay with IL-2 promoter is 9.7 µM; on GST-fused lck SH2 domain, 10 to 25 µM. Moreover, the Arthritis index in assay [1] stood at 6.8 ± 1.9.

Turning to `CN(C(=O)/C=C/c1ccc(O)c(O)c1)[C@@H](Cc1ccc(O)c(O)c1)C(=O)O` [Example 37, 3-(3,4-dihydroxy-phenyl)-(S)-2-{[3-trans-(3,4-dihydroxy-phenyl)-acryloyl]-methyl-amino}-propionic acid], the IC50 with IL-2 promoter is 17.3 µM; on GST-fused lck SH2 domain it was 25 to 50 µM. Further, the Arthritis index in assay [1] was determined as 6.7 ± 0.7.

In the case of `CCOC(=O)[C@H](Cc1ccc(O)c(O)c1)N(C)C(=O)/C=C/c1ccc(O)c(O)c1` [Example 38, 3-(3,4-dihydroxy-phenyl)-(S)-2-{[3-trans-(3,4-dihydroxy-phenyl)-acryloyl]-methyl-amino}-propionic acid ethyl ester], the IC50 with IL-2 promoter is 11 µM; at GST-fused lck SH2 domain it was 10 to 25 µM. In addition, the Arthritis index in assay [1] was 5.5 ± 1.3.

With `CC(C)OC(=O)[C@H](Cc1ccc(O)c(O)c1)N(C)C(=O)/C=C/c1ccc(O)c(O)c1` [Example 40, 3-(3,4-dihydroxy-phenyl)-(S)-2-{[3-trans-(3,4-dihydroxy-phenyl)-acryloyl]-methyl-amino}-propionic acid isopropyl ester], the IC50 in the assay with IL-2 promoter was 8.7 µM; on GST-fused lck SH2 domain it was 10 to 25 µM. In assay [1], this molecule showed an Arthritis index of 5.9 ± 0.4.

On to `COC(=O)[C@@H](Cc1ccc(O)cc1)NC(=O)/C=C/c1ccc(O)c(O)c1` [Example 45], for which the IC50 in the assay with IL-2 promoter is 7.8 µM; on GST-fused lck SH2 domain, 10 to 25 µM. For the same molecule, the Arthritis index in assay [1] was 5.7 ± 0.9.

`COC(=O)C(Cc1ccc(O)c(O)c1)NC/C=C/c1ccc(O)c(O)c1` (centres unmarked) [Example 53, 3-(3,4-dihydroxy-phenyl)-2-[3-(3,4-dihydroxy-phenyl)-arylamino]-propionic acid methyl ester]: in the assay with IL-2 promoter, the IC50 worked out at 24.4 µM. In the assay on skin allograft rejection (setting [2]), the “Survival time of skin graft tissue” value is recorded as 11.9 ± 1.1 days. The Arthritis index in assay [1] worked out at 9.8 ± 1.2.

For the molecule `CO[C@H]1C[C@@H]2CC[C@@H](C)[C@@](O)(O2)C(=O)C(=O)N2CCCC[C@H]2C(=O)O[C@H]([C@H](C)C[C@@H]2CC[C@@H](O)[C@H](OC)C2)CC(=O)[C@H](C)/C=C(\C)[C@@H](O)[C@@H](OC)C(=O)[C@H](C)C[C@H](C)/C=C/C=C/C=C/1C` [Rapamycine, reference compound], the figures for the “Survival time of skin graft tissue” value in the assay on skin allograft rejection (Rapamycine 1 mg/kg/day) and in the assay with skin allograft rejection (Rapamycine 4 mg/kg/day) were 12.7 ± 1.5 days and 16.2 ± 1.0 days, respectively.
